pIC50: −log10 of the molar value.
How the values were obtained:
HBsAg = assay: PHH natural infection assay, HBsAg (alphalisa); type: cell-based, HBV; details: Hepatitis B virus, Hepatocyte, read-out: HBsAg IC50, HBV-infected primary human hepatocytes, supernatant, alphalisa
How it was run: (§1)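 Cryopreserved PHH plated 24 h, infected with HBV at 200 GE/cell plus 4% PEG8000 for 24 h, then sandwich-cultured 72 h with 0.25 mg/mL matrix gel. Compounds at varied concentrations applied twice at 72-h intervals. Supernatant HBsAg and HBeAg measured by AlphaLISA with specific antibodies.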

HBeAg = assay: PHH natural infection assay, HBeAg (alphalisa); type: cell-based, HBV; details: Hepatitis B virus, Hepatocyte, read-out: HBeAg IC50, HBV-infected primary human hepatocytes, supernatant, alphalisa
How it was run: as §1

[1] = Cytotoxicity in PHH natural infection assay (Cell Counting Kit-8); type: cell-based; details: HBV-infected primary human hepatocytes, CCK8
How it was run: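 HBV-infected primary human hepatocytes (200 GE/cell, 4% PEG8000, 24 h), sandwich-cultured 72 h, then given compound-containing medium twice at 72 h intervals. Cytotoxicity read by CCK-8 at end of treatment.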

Row | Structure (SMILES) | pIC50 (HBsAg) | pIC50 (HBeAg) | CC50 at 144 h [1]
1 | O=C(NC1CC2(C1)CC(c1nc3cc(Cl)ccc3o1)C2)C1CC(C(F)(F)F)C1 (stereo not drawn) [Example 29, N-[6-(5-chloro-1,3-benzoxazol-2-yl)spiro[3.3]heptan-2-yl]-3-(trifluoromethyl)cyclobutanecarboxamide] | 5.33 | 5.42 | > 100 µM
2 | CC(C)Oc1cc(C(=O)NC2CC3(C2)CC(c2nc4cc(Cl)ccc4o2)C3)ccn1 (stereo not drawn) [Example 20, N-[6-(5-chloro-1,3-benzoxazol-2-yl)spiro[3.3]heptan-2-yl]-2-isopropoxy-pyridine-4-carboxamide] | 5.72 | 5.90 | > 10 µM
3 | CCN(C)c1cc(C(=O)NC2CC3(C2)CC(c2nc4cc(Cl)ccc4o2)C3)ccn1 (stereo not drawn) [Example 7, N-[6-(5-chloro-1,3-benzoxazol-2-yl)spiro[3.3]heptan-2-yl]-2-[ethyl(methyl)amino]pyridine-4-carboxamide] | 5.38 | 5.36 | > 10 µM
4 | CNC(=O)c1cc(C(=O)NC2CC3(C2)CC(c2nc4cc(Cl)ccc4o2)C3)ccn1 (stereo not drawn) [Example 102, N4-[6-(5-chloro-1,3-benzoxazol-2-yl)spiro[3.3]heptan-2-yl]-N2-methyl-pyridine-2,4-dicarboxamide] | 5.57 | 5.64 | > 10 µM
5 | O=C(NC1CC2(C1)CC(c1nc3cc(Cl)ccc3o1)C2)C1CCS(=O)(=O)CC1 (stereo not drawn) [Example 53, N-[6-(5-chloro-1,3-benzoxazol-2-yl)spiro[3.3]heptan-2-yl]-1,1-dioxo-thiane-4-carboxamide] | 5.17 | 5.28 | > 100 µM
6 | O=C(NC1CC2(C1)CC(c1nc3cc(Cl)ccc3o1)C2)c1ccnc(N2CCCCC2)c1 (stereo not drawn) [Example 8, N-[6-(5-chloro-1,3-benzoxazol-2-yl)spiro[3.3]heptan-2-yl]-2-(1-piperidyl)pyridine-4-carboxamide] | 5.33 | 5.39 | > 10 µM
7 | O=C(NC1CC2(C1)CC(c1nc3cc(Cl)ccc3o1)C2)C1CCN(C(=O)C2CC2)C1 (stereo not drawn) [Example 74, N-[6-(5-chloro-1,3-benzoxazol-2-yl)spiro[3.3]heptan-2-yl]-1-(cyclopropanecarbonyl)pyrrolidine-3-carboxamide] | 5.49 | 5.66 | > 10 µM
8 | Cc1ccc(S(=O)(=O)N2CCC(CC(=O)NC3CC4(C3)CC(c3nc5cc(Cl)ccc5o3)C4)C2)cc1 (stereo not drawn) [Example 76, N-[6-(5-chloro-1,3-benzoxazol-2-yl)spiro[3.3]heptan-2-yl]-2-[1-(p-tolylsulfonyl)pyrrolidin-3-yl]acetamide] | 5.54 | 5.40 | > 10 µM
9 | CN(C(=O)c1ccnc(S(C)(=O)=O)c1)C1CC2(CC(c3nc4cc(Cl)ccc4o3)C2)C1 (stereo not drawn) [Example 92, N-[6-(5-chloro-1,3-benzoxazol-2-yl)spiro[3.3]heptan-2-yl]-N-methyl-2-methylsulfonyl-pyridine-4-carboxamide] | 5.52 | 5.69 | > 10 µM
10 | CCS(=O)(=O)N1CCC(C(=O)NC2CC3(C2)CC(c2nc4cc(Cl)ccc4o2)C3)C1 (stereo not drawn) [Example 70, N-[6-(5-chloro-1,3-benzoxazol-2-yl)spiro[3.3]heptan-2-yl]-1-ethylsulfonyl-pyrrolidine-3-carboxamide] | 5.27 | 5.44 | > 10 µM
11 | CC(C)(C)C(=O)NC1CC2(C1)CC(c1nc3cc(Cl)ccc3o1)C2 (stereo not drawn) [Example 27, N-[6-(5-chloro-1,3-benzoxazol-2-yl)spiro[3.3]heptan-2-yl]-2,2-dimethyl-propanamide] | 5.01 | 5.01 | > 100 µM
12 | O=C(NC1CC2(C1)CC(c1nc3cc(Cl)ccc3o1)C2)c1ccnc(N2CCOCC2)c1 (stereo not drawn) [Example 9, N-[6-(5-chloro-1,3-benzoxazol-2-yl)spiro[3.3]heptan-2-yl]-2-morpholino-pyridine-4-carboxamide] | 5.42 | 5.36 | > 10 µM
13 | [H][C@@]1(C(=O)N[C@]2([H])C[C@@]3(C2)C[C@@]([H])(c2nc4cc(Cl)ccc4o2)C3)CC(=O)N(C)C1 (single isomer, unassigned) [Example 94c] | 5.91 | 6.21 | > 100 µM
14 | CCNC(=O)NC1CC2(C1)CC(c1nc3cc(Cl)ccc3o1)C2 (stereo not drawn) [Example 59, 1-[6-(5-chloro-1,3-benzoxazol-2-yl)spiro[3.3]heptan-2-yl]-3-ethyl-urea] | 5.07 | 5.40 | > 100 µM
15 | Cc1cc(C(=O)NC2CC3(C2)CC(c2nc4cc(Cl)ccc4o2)C3)ccn1 (stereo not drawn) [Example 4, N-[6-(5-chloro-1,3-benzoxazol-2-yl)spiro[3.3]heptan-2-yl]-2-methyl-pyridine-4-carboxamide] | 5.26 | 5.34 | > 10 µM
16 | O=C(NC1CC2(C1)CC(c1nc3cc(Cl)ccc3o1)C2)c1ccnc(-c2nccs2)c1 (stereo not drawn) [Example 16, N-[6-(5-chloro-1,3-benzoxazol-2-yl)spiro[3.3]heptan-2-yl]-2-thiazol-2-yl-pyridine-4-carboxamide] | 5.24 | 5.33 | > 10 µM
17 | O=C(NC1CC2(C1)CC(c1nc3cc(Cl)ccc3o1)C2)c1ccnc(S(=O)(=O)C2CNC2)c1 (stereo not drawn) [Example 98, 2-(Azetidin-3-ylsulfonyl)-N-[6-(5-chloro-1,3-benzoxazol-2-yl)spiro[3.3]heptan-2-yl]pyridine-4-carboxamide] | 5.44 | 5.51 | > 10 µM
18 | O=C(NC1CC2(C1)CC(c1nc3cc(Cl)ccc3o1)C2)c1ccnc(C(F)(F)F)c1 (stereo not drawn) [Example 21, N-[6-(5-chloro-1,3-benzoxazol-2-yl)spiro[3.3]heptan-2-yl]-2-(trifluoromethyl)pyridine-4-carboxamide] | 5.74 | 5.70 | 82 µM
19 | O=C(NCC1CCOC1)NC1CC2(C1)CC(c1nc3cc(Cl)ccc3o1)C2 (stereo not drawn) [Example 63, 1-[6-(5-chloro-1,3-benzoxazol-2-yl)spiro[3.3]heptan-2-yl]-3-(tetrahydrofuran-3-ylmethyl)urea] | 5.10 | 5.28 | > 100 µM
20 | O=C(NC1CC2(C1)CC(c1nc3cc(Cl)ccc3o1)C2)C1CCN(C(=O)C2CCC2)C1 (stereo not drawn) [Example 75, N-[6-(5-chloro-1,3-benzoxazol-2-yl)spiro[3.3]heptan-2-yl]-1-(cyclobutanecarbonyl)pyrrolidine-3-carboxamide] | 5.02 | 5.05 | > 10 µM

Source: patent US20230286968A1, “ARYLOXAZOLO SPIRAL RING DERIVATIVES FOR THE TREATMENT AND PROPHYLAXIS OF HEPATITIS B VIRUS INFECTION” (Hoffmann-La Roche Inc., priority 2020, published 2023)
